Test results published in patent US20230201290A1, “TGF-BETA INHIBITION, AGENTS AND COMPOSITION THEREFOR” (GMP BIOTECHNOLOGY LIMITED, priority 2020, published 2023).
≈ marks a conversion by molar mass, not a printed value. Where two headings read alike, the source gives them in different places.

Legend:
cerebral malaria = conditions: cited from earlier work
SARS-CoV-2 [1] = conditions: VeroE6, 2-day incubation; cited from earlier work
in vitro = conditions: African green monkey
SARS-COV-2 USA_WA1/2020 [2] = experiment: microbe, parasite or virus in culture
[3] = 500 mg orally, Child B cirrhosis; cited from earlier work
falciparum malaria = conditions: cited from earlier work
SARS-COV-2 USA_WA1/2020 [4] = conditions: Vero 76
[5] = cited from earlier work
vivax malaria = conditions: cited from earlier work
SARS-CoV-2 [6] = conditions: Vero E6, MOI 0.01, 24 h post-infection; cited from earlier work
TGF-β mRNA = conditions: 100 mg/kg ip daily for 20 days; P<0.01; cited from earlier work
Vero E6 cells = conditions: remdesivir, literature; cited from earlier work
[7] = 527 cases of falciparum malaria

Compound: C[C@@H]1CC[C@H]2[C@@H](C)C(=O)O[C@@H]3O[C@@]4(C)CC[C@@H]1[C@]32OO4 [Artemisinin]
- mortality rate (cerebral malaria; 141 patients): 7.1%
- patients cured (cerebral malaria; 141 patients): 92.9%
- average defervescence time (cerebral malaria; across all sites): 34.1 to 56.7 h
- average parasite clearance time (cerebral malaria; across all sites): 33.3 to 64.5 h
- average time taken to regain consciousness (cerebral malaria; across all sites): 21.5 to 30.8 h
- cure rate (cerebral malaria; nasogastric gavage, 36 patients): 91.7%
- anti-SARS-CoV-2 activity by immunostaining for spike protein (SARS-CoV-2 [1]): confirmed
- CC50 (in vitro): 61 µg/mL (≈ 216 µM)
- EC50 (SARS-COV-2 USA_WA1/2020 [2]; Severe acute respiratory syndrome coronavirus 2, Vero 76, 120 h, read-out: EC50 (50% effective antiviral concentration)): 0.45 µg/mL
- EC50 (SARS-COV-2 USA_WA1/2020 [2]; Severe acute respiratory syndrome coronavirus 2, Vero 76, 120 h, read-out: EC50: 50% effective antiviral concentration): 0.45 µg/mL
- EC50 (SARS-COV-2 USA_WA1/2020 [2]; Severe acute respiratory syndrome coronavirus 2, Vero 76, read-out: EC50 (value in brackets)): 1590 nM
- elimination half-life, log-linear regression [3]: 4 (±1.3) h
- elimination half-life, non-linear regression, one-compartment model [3]: 2.4 ± 0.9 h
- mean (±SD) area under the concentration time curve [3]: 2365 (±1761) h ng/ml
- mean (±SD) clearance [3]: 382 (±303) L/h
- cure of chloroquine-resistant (RI-RIII) cases (falciparum malaria; 143 cases, 3-day regimen oil, oil suspension or water suspension): all patients were cured
- Fever clearance time (falciparum malaria; [7]): 30 to 40 h
- asexual parasite clearance time (falciparum malaria; [7]): 30 to 50 h
- average asexual parasite clearance time (falciparum malaria; 1975, 3-day regimens: artemisinin tablets 2.5 g, chloroquine 1.5 g base): 37 ± 17.8 h
- recrudescence in a month (falciparum malaria; 1975, 3-day regimens): All the cases
- average parasite clearance time (falciparum malaria; group A: 500 mg daily for 5 days): 34 ± 14 h
- average parasite clearance time (falciparum malaria; group B: 100/100/250/250/500 mg escalating): 50 ± 23 h
- mean parasite clearance time (falciparum malaria; single 500 mg oral dose, 11 patients): 36 h
- recrudescence rate within a month (falciparum malaria; tablets): 85%
- Antiviral activity against SARS-CoV-2 (words) (SARS-COV-2 USA_WA1/2020 [4]): suppressed SARS-CoV-2 replication
- Antiviral activity against SARS-CoV-2 (words) (SARS-COV-2 USA_WA1/2020 [4]; listed as artemisinin): High antiviral activity
- AUC ([5]; 500 mg after food): 2,092±1,441 ng×ml^−1×h
- time at which half of the terminal value was reached ([5]; 500 mg after food): 0.97 ± 0.68 h
- maximum concentration of drug in serum (Cmax) ([5]; 500 mg capsules after food, six healthy subjects): 443 ± 224 ng/mL
- oral plasma clearance ([5]; 1×250, 2×250, 4×250 mg capsules, eight healthy subjects): about 400 L h-1
- mean oral clearance ([5]; population PK, 15 subjects, 160 and 500 mg): 417 L/h
- terminal elimination half-life ([5]; population PK, 15 subjects): 1.93 h
- volume of distribution ([5]; population PK, 15 subjects): 1210 L
- mean induction time of own metabolism ([5]; semiphysiological autoinduction model, saliva): 1.9 h
- average asexual parasite clearance time (vivax malaria; 1511 cases of vivax malaria): 30 to 40 h
- average defervescence time (vivax malaria; 1511 cases of vivax malaria): 20 to 30 h
- parasite clearance time (vivax malaria; 1975: artemisinin tablets total 3 g, chloroquine total 1.5 g base): 39.6 ± 13.5 h
- relapse rate within a month (vivax malaria; 1975 comparison with chloroquine): 21.4%
- anti-SARS-CoV-2 activity by RTPCR method (SARS-CoV-2 [6]): confirmed
- TGF-β mRNA levels within the tumor (TGF-β mRNA): significantly decreased

Compound: CCC(CC)COC(=O)[C@H](C)N[P@](=O)(OC[C@H]1O[C@@](C#N)(c2ccc3c(N)ncnn23)[C@H](O)[C@@H]1O)Oc1ccccc1 [Remdesivir]
- CC50 (Vero E6 cells): > 200000 nM
